Experimental data reported in the supplement of paper PMC10307832.

Experiments:
Experiment in all cases: relative viability (nuclei count vs DMSO), 5 days (fraction); higher = more cells survive
[1] = compound: Cc1ccc(C(=O)Nc2ccc(CN3CCN(C)CC3)c(C(F)(F)F)c2)cc1C#Cc1cnc2cccnn12 [Ponatinib] + CC(=O)Nc1cccc(-n2c(=O)n(C3CC3)c(=O)c3c(Nc4ccc(I)cc4F)n(C)c(=O)c(C)c32)c1 [Trametinib] (partner 0.02 µM)
Outline: (§1)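 Lung cancer cell lines in 1536-well plates were dosed by pin tool the day after seeding, either with one drug alone or with a fixed anchor-drug dose plus five library-drug doses (not always all listed) in √10 steps. After 5 days, cells were fixed and their nuclei stained in one step (final 0.05% Triton X-100, 1% formaldehyde, 1 ug/ml Hoechst), then counted on 4× images. Relative viability is the nuclei count in treated wells divided by that in vehicle wells. Values are medians of duplicate plates.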

[2] = compound: Cc1ccc(C(=O)Nc2ccc(CN3CCN(C)CC3)c(C(F)(F)F)c2)cc1C#Cc1cnc2cccnn12 [Ponatinib] + CS(=O)(=O)N1CCN(Cc2cc3nc(-c4cccc5[nH]ncc45)nc(N4CCOCC4)c3s2)CC1 [Pictilisib] (partner 1 µM)
Outline: as §1

[3] = compound: Cc1ccc(C(=O)Nc2ccc(CN3CCN(C)CC3)c(C(F)(F)F)c2)cc1C#Cc1cnc2cccnn12 [Ponatinib] + CS(=O)(=O)CCNCc1ccc(-c2ccc3ncnc(Nc4ccc(OCc5cccc(F)c5)c(Cl)c4)c3c2)o1 [Lapatinib] (partner 2 µM)
Outline: as §1

[4] = compound: Cc1ccc(Nc2nccc(N(C)c3ccc4c(C)n(C)nc4c3)n2)cc1S(N)(=O)=O [Pazopanib] + CC(=O)Nc1cccc(-n2c(=O)n(C3CC3)c(=O)c3c(Nc4ccc(I)cc4F)n(C)c(=O)c(C)c32)c1 [Trametinib] (partner 0.02 µM)
Outline: as §1

UMC-11
relative viability ([1]; first compound 0.002 µM): 0.648
relative viability ([1]; first compound 0.006325 µM): 0.638
relative viability ([1]; first compound 0.06325 µM): 0.822
relative viability ([1]; first compound 0.2 µM): 0.709
relative viability ([2]; first compound 0.002 µM): 0.809
relative viability ([2]; first compound 0.006325 µM): 0.933
relative viability ([2]; first compound 0.06325 µM): 0.766
relative viability ([2]; first compound 0.2 µM): 0.831
relative viability ([3]; first compound 0.002 µM): 1
relative viability ([3]; first compound 0.006325 µM): 1.05
relative viability ([3]; first compound 0.06325 µM): 1.17
relative viability ([3]; first compound 0.2 µM): 0.988
relative viability ([4]; first compound 0.01 µM): 0.552
relative viability ([4]; first compound 0.03162 µM): 0.732
relative viability ([4]; first compound 0.1 µM): 0.672
relative viability ([4]; first compound 0.3162 µM): 0.756
relative viability ([4]; first compound 1 µM): 0.846
